US9888689B2, “Compositions containing a pyripyropene insecticide and an adjuvant” (BASF SE, priority 2010, dated 2018)

Legend:
[1] = Stability of crystalline hydrate forms of compound of formula I; type: physicochemical
Source text: As pointed out above, a further aspect of the present invention relates to the hydrate B of the compound of formula I. Form B is a non-stoichiometric hydrate of the compound of formula I. The typical water content is in the range from 7.5 to 9 wt % and in particular about 8.5 wt %, i.e. 8.5±0.2 wt %. The water content can be determined by thermo-gravimetric analysis (TGA).

[2] = tested on: larvae of Helicoverpa zea; settings: cited from earlier work
Tenebrio molitor L = settings: cited from earlier work
[3] = tested on: Plutella xylostella L larvae; settings: cited from earlier work

What does the source list for C[C@]1(COC(=O)C2CC2)[C@@H]2C[C@H](O)[C@@]3(C)Oc4cc(-c5cccnc5)oc(=O)c4[C@H](O)[C@@H]3[C@@]2(C)CC[C@@H]1OC(=O)C1CC1 [Form B]?
conversion of the hydrate form ([1]; dried at elevated temperatures, e.g. >50 °C): slowly converts into amorphous material; stability of the hydrate form ([1]; room temperature, in contact with aqueous solvent or water or at high degrees of humidity, e.g. 90%): stable; conversion of the hydrate form ([1]; when the mother liquor is removed or humidity is reduced): slowly converts into form C

Which “stability of the hydrate form” value ([1]; ambient conditions) does the source give for C[C@]1(COC(=O)C2CC2)[C@@H]2C[C@H](O)[C@@]3(C)Oc4cc(-c5cccnc5)oc(=O)c4[C@H](O)[C@@H]3[C@@]2(C)CC[C@@H]1OC(=O)C1CC1 [Form C] here?
The value was “stable at ambient conditions over weeks and month”.

For CC(=O)OC[C@@]1(C)[C@@H]2C[C@H](OC(C)=O)[C@@]3(C)Oc4cc(-c5cccnc5)oc(=O)c4[C@H](O)[C@@H]3[C@@]2(C)CC[C@@H]1OC(C)=O [Pyripyropene A], which insecticidal activity [2] is on record?
Its insecticidal activity is “insecticidal activity”.

And the insecticidal activity (Tenebrio molitor L)?
The insecticidal activity was “insecticidal activity”.

And the insecticidal activity [3]?
Its insecticidal activity is “insecticidal activity”.
